Measurements as given in patent US5235045A, “Non-azo naphthalimide dyes” (priority 1992, dated 1993).
Read-outs that look alike come from different tables or passages of the source.

What was measured:
H9 cells = test: Cell viability in absence of light (trypan blue exclusion); assay type: cell-based, human; details: dark
From the text: Following the protocol of (1), above, H9 cells were stained with Compound lb, and the technique of fluorescent microscopy was used to determine visually the sites of localization of dye fluorescence in living cells. Specifically, H9 cells were counted with a hemocytometer and diluted to 5×10^5 /ml. […] Cytospin slides of the cell suspensions were made and they were examined with the fluorescence microscope (Olympus AH-2) using B excitation plus a 460 nm interference excitation filter and a 495 nm emission filter. The cells were also counted with a hemocytometer and their viability determined (see below). […] The former may reflect the diffusional component of the dye incorporation, or may reflect binding in the ER membrane. The latter may indicate lysosomal localization of pinocytosed dye as occurs with Lucifer Yellow.
Cell viability was determined using dye incorporated according to the protocol directly above. Viability was determined using a trypan blue dye exclusion test in which "live" cells with competent cell membranes exclude the dye. Table 5 summarizes the data obtained using cells exposed to Compound 1b in culture medium, and Table 6 summarizes data obtained using cells exposed to Compound VII.

[1] = system: Herpes simplex virus type 1; test: Effect of DiEd6Br and light on HSV-1 containing 15% fetal calf serum and human blood platelets (plaque assay); assay type: cell-based, MacIntyre strain; details: for log reduction at 0.156 µM / log reduction at 0.625 µM: Human alphaherpesvirus 1, Platelet, light or radiation study, read-out: Log10 Reduction
[2] = system: Human High Density Lipoprotein (HDL), Apoprotein I; test: Protein crosslinking with DiEd6Br: HDL; assay type: biochemical; details: 25.0 μM, 400 J/cm^2
[3] = system: Vesicular stomatitis Virus (Ogden strain) (VSV), G-protein; assay type: biochemical; details: 10.0 μM, 460 J/cm^2
[4] = system: Herpes simplex virus type 1; test: Effect of prior activation of Ed6Br with 420 nm light on HSV-1 (plaque assay); assay type: cell-based, MacIntyre strain; details: for log reduction at 25 µM / log reduction at 100 µM: Human alphaherpesvirus 1, 24 h, read-out: Log10 Reduction
DAUDI cells = test: Photoinduced cell kill of DAUDI cells ([3H]-thymidine incorporation); assay type: cell-based; details: for CPM ([3H]-thymidine incorporation): 10% FCS medium
Protocol: An additional study using DAUDI cells and lower concentrations of Compound VII was performed according to the same protocol for studying the photochemical kill of H9 cells mediated by Compound VII. Viability was determined by the trypan blue assay above, as well as by [^3 H]-thymidine incorporation. The [^3 H]-thymidine incorporated protocol was as follows:
After irradiation, the cells were diluted to 3×10^5 cells/ml with medium containing twice the normal concentration of gentamycin. The cells were pipetted into a 96-well TC plat (100 μl/well) and incubated at 37° C. in a 5% CO2 incubator for 36 hours. At this time 1 μCi of [^3 ]-thymidine was added and allowed to incorporate for 6 hours. The cells were then harvested on glass fiber filters and placed into scintillation vials to which cocktail was added. The samples were counted on a Beckman model LS 6000IC scintillation counter.

BHV-1 antigen = test: Surface antigen assays of BHV-1 on FBL cells; assay type: cell-based, Bovine Herpes Virus Type I (BHV-1)
Protocol: Surface Antigen Assays The BHV-1 virus prepared as above (20480 TCID50) was (i) held as control; (ii) treated with dye (concentrations from 7.5 to 250 ng/ml) in cell culture medium; or (iii) treated with Compound VII and light-treated in cell culture medium. All virus was plated in 96-well flat bottom plates for 24 hours in 5x replicates on FBL cells. At that time the wells were examined for CPE, scored, and 2x wells were fixed in acetone and paraformaldehyde for examination of intracellular and surface BHV-1 antigen, respectively. The cells were treated with 50 μl of an anti-BHV-1 monoclonal antibody (gift of Dr. J. Collins, Diagnostic Laboratory, Colorado State University, School of Veterinary Medicine) used as a common diagnostic reagent, for 30 minutes at room temperature. The cells were further stained with either FITC-labeled anti-mouse or biotinylated anti-mouse and avidin rPE. The samples were placed on slides and read by fluorescent microscopy using a 495 nm excitor filter and 525 long pass emission filter on a Leitz epifluorescent microscope.

[5] = 5 μM, medium 1.5 hours, counted 2.5 hours after
[6] = 25 μM, medium 1.5 hours, counted 2.5 hours after
[7] = 2 G-protein units or 1 G-protein + 2 M-protein units
[8] = 1 μM, 100% human plasma 4 hours, 1 hour after
[9] = 1 μM, medium 24 hours, 1 hour after
[10] = 5 μM, 100% human plasma 4 hours, 1 hour after
[11] = 10 μM, medium 24 hours, 1 hour after
[12] = 25 μM, 100% human plasma 4 hours, 1 hour after
[13] = 25 μM, medium 24 hours, 1 hour after
[14] = 50 μM, medium 24 hours, 1 hour after
[15] = photochemically attenuated virus
[16] = virus and dye, dark control, 7.5 to 250 ng/ml

SMILES: CCCCCCNc1ccc2c3c(cccc13)C(=O)N(CCCCCC)C2=O [Compound 1b, 4-(hexyl)amino-N-hexyl-1,8-naphthalimide]
- dead cells (H9 cells; [5]): 4
- live cells (H9 cells; [5]): 116
- dead cells (H9 cells; [6]): 4
- live cells (H9 cells; [6]): 136

SMILES: CCCCCCN1C(=O)c2cccc3c(NCCNC(=O)CCCCC(=O)NCCNc4c(Br)cc5c6c(cccc46)C(=O)N(CCCCCC)C5=O)c(Br)cc(c23)C1=O [Compound XLIV]
- PFU/ml ([1]; 0.156 μM, 5 J/cm^2): 7.4 × 10^7 PFU/ml
- PFU/ml ([1]; 0.156 μM, 10 J/cm^2): 6.0 × 10^7 PFU/ml
- PFU/ml ([1]; 0.156 μM, 20 J/cm^2): 1.5 × 10^7 PFU/ml
- PFU/ml ([1]; 0.156 μM, 40 J/cm^2): 4.5 × 10^6 PFU/ml
- PFU/ml ([1]; 0.156 μM, 60 J/cm^2): 1.5 × 10^6 PFU/ml
- PFU/ml ([1]; 625 μM (so in the source), 5 J/cm^2): 5.0 × 10^5 PFU/ml
- PFU/ml ([1]; 625 μM (so in the source), 10 J/cm^2): 4.5 × 10^5 PFU/ml
- PFU/ml ([1]; 625 μM (so in the source), 20 J/cm^2): 2.0 × 10^4 PFU/ml
- PFU/ml ([1]; 625 μM (so in the source), 40 J/cm^2): 1.1 × 10^3 PFU/ml
- PFU/ml ([1]; 625 μM (so in the source), 60 J/cm^2): None detected
- log reduction at 0.156 µM ([1]; 0.156 μM, 5 J/cm^2): 0.01
- log reduction at 0.156 µM ([1]; 0.156 μM, 10 J/cm^2): 0.1
- log reduction at 0.156 µM ([1]; 0.156 μM, 20 J/cm^2): 0.7
- log reduction at 0.156 µM ([1]; 0.156 μM, 40 J/cm^2): 1.22
- log reduction at 0.156 µM ([1]; 0.156 μM, 60 J/cm^2): 1.7
- log reduction at 0.625 µM ([1]; 5 J/cm^2): 2.18
- log reduction at 0.625 µM ([1]; 10 J/cm^2): 2.22
- log reduction at 0.625 µM ([1]; 20 J/cm^2): 3.58
- log reduction at 0.625 µM ([1]; 40 J/cm^2): 4.84
- log reduction at 0.625 µM ([1]; 60 J/cm^2): 7
- kill of HSV-1 ([1]; as low as 0.625 mM, 60 J/cm^2, 15% serum proteins and platelets): > 99.86%
- Inferred Crosslinked Species ([2]; Cremophor EL): 8 Apopro-
- Inferred Crosslinked Species, Gel mw ([2]; 8 Apoprotein I units): 141 kD
- heavier bands [3]: many ill separated heavier bands merging together near
- Inferred Crosslinked Species [3, 7]: 2 G-protein
- Inferred Crosslinked Species, Gel mw [3, 7]: 130 kD

SMILES: CCCCCCNc1c(Br)cc2c3c(cccc13)C(=O)N(CCCCCC)C2=O [Compound VII, 3-bromo-4-(hexyl)amino-N-hexyl-1,8-naphthalimide]
- dead cells (H9 cells; [8]): 12
- live cells (H9 cells; [8]): 280
- dead cells (H9 cells; [9]): 23
- live cells (H9 cells; [9]): 151
- dead cells (H9 cells; [10]): 16
- live cells (H9 cells; [10]): 286
- dead cells (H9 cells; [11]): 26
- live cells (H9 cells; [11]): 104
- dead cells (H9 cells; [12]): 16
- live cells (H9 cells; [12]): 339
- dead cells (H9 cells; [13]): 38
- live cells (H9 cells; [13]): 148
- dead cells (H9 cells; [14]): 128
- live cells (H9 cells; [14]): 124
- PFU/ml ([4]; 25 μM, prior activation +): 8.4 × 10^3 PFU/ml
- PFU/ml ([4]; 25 μM, prior activation -): 4.5 × 10^4 PFU/ml
- PFU/ml ([4]; 100 μM, prior activation +): 3.0 × 10^1 PFU/ml
- PFU/ml ([4]; 100 μM, prior activation -): 9.0 × 10^3 PFU/ml
- log reduction at 25 µM ([4]; 25 μM, prior activation +): 1.51
- log reduction at 25 µM ([4]; 25 μM, prior activation -): 0.78
- log reduction at 100 µM ([4]; 100 μM, prior activation +): 3.95
- log reduction at 100 µM ([4]; 100 μM, prior activation -): 1.48
- kill of HSV-1 ([4]; as low as 100 mM, activated prior to addition to viral suspension): > 99.99%
- CPM ([3H]-thymidine incorporation) (DAUDI cells; 1 μM, hν): 1.2 ± 0.4 × 10^2 CPM
- CPM ([3H]-thymidine incorporation) (DAUDI cells; 1 μM, no hν): 5.1 ± 0.3 × 10^4 CPM
- CPM ([3H]-thymidine incorporation) (DAUDI cells; 5 μM, hν): 1.1 ± 0.3 × 10^2 CPM
- CPM ([3H]-thymidine incorporation) (DAUDI cells; 5 μM, no hν): 4.8 ± 0.3 × 10^4 CPM
- CPM ([3H]-thymidine incorporation) (DAUDI cells; 10 μM, hν): 1.0 ± 0.4 × 10^2 CPM
- CPM ([3H]-thymidine incorporation) (DAUDI cells; 10 μM, no hν): 4.5 ± 0.2 × 10^4 CPM
- photochemical cell inactivation (DAUDI cells; concentrations as low as 1 μM, 10J/cm^2): highly efficient photochemical cell inactivator
- internal viral antigen (BHV-1 antigen; [15]): internal antigen was observed at all concentrations of Compound VII which showed CPE
- surface viral antigen (BHV-1 antigen; [15]): Surface antigen was observed at all concentrations
- internal viral antigen (BHV-1 antigen; [16]): Internal antigen was observed and correlated with CPE levels
- surface viral antigen (BHV-1 antigen; [16]): Much surface viral antigen was detected at all dye concentrations
